Assay [1] addresses mutant cKIT (560-576 and V654A) in GIST430/654 cell line (Homo sapiens (Human), UniProt P10721, DEL560-576/V654A). Put plainly: Cellular testing of cKIT mutant inhibitors: phospho-Y307-cKIT Luminex assay in GIST430/654 cells. It is filed as cell-based. To be noted: Table 1; cKIT autophosphorylation, compounds 45 min; read-out: GIST 430/654 IC50. A digest of the protocol: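 Autophosphorylation of mutant cKIT at Y307 was quantified by a Luminex bead sandwich assay (total-cKIT capture, phosphospecific detection) after 45 min compound exposure in GIST430/654 cells, cultured in medium containing 100 nM imatinib. Signals were normalised to solvent (0.3% DMSO) controls and dose-response curves fitted for IC50.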

The target in another assay is c-Kit(V654A) (Homo sapiens, UniProt P10721, V654A). The assay is described as follows: c-Kit(V654A) assay. Type of assay: biochemical. To be noted: Table 1; 200 μM ATP. A digest of the protocol: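 Radiometric filter-binding read-out: after 3% phosphoric acid stop, peptide-incorporated 33P on filtermat scintillation-counted. Enzyme: human c-Kit V654A, residues 544–end, N-terminal GST fusion.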

The record followed here is US20260042753A1 (Merck Patent GmbH, priority 2019, published 2026).

Counter-ions that a name gives are not always drawn.

Sequence of mutant cKIT (560-576 and V654A) in GIST430/654 cell line (P10721 other isoform, or with tags, fused parts or gaps V654A/del 1-25/del 560-576 limits assumed): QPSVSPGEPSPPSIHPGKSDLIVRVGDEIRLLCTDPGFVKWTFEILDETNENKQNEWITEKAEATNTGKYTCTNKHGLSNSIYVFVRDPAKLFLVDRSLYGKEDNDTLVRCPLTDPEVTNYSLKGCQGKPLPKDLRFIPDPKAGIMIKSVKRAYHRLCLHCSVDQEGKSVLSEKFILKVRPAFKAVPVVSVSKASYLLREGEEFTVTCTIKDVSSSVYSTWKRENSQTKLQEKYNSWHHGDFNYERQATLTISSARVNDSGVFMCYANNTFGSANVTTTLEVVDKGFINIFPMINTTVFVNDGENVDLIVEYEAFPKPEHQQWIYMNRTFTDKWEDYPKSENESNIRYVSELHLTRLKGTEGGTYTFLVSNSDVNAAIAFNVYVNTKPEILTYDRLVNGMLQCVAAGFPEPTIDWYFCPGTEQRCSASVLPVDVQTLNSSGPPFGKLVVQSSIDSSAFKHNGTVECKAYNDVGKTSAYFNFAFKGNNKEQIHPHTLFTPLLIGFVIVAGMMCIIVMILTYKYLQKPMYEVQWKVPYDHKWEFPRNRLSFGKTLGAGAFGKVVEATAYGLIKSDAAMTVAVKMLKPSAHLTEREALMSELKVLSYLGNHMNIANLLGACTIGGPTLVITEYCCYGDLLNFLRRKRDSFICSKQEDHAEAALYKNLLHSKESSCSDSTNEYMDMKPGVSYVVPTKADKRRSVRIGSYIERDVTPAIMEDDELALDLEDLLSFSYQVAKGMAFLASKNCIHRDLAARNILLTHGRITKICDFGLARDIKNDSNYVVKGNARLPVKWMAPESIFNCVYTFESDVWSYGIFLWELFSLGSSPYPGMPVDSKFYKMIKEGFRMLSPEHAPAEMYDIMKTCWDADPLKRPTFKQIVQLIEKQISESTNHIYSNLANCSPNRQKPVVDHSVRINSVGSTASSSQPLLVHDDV

In the case of `COCCOc1cc2[nH]nc(-c3cc(-c4ccc(N=S5(=O)CCNCC5)cc4)no3)c2cc1F` [A129, 1-[(4-{5-[5-fluoro-6-(2-methoxyethoxy)-1H-indazol-3-yl]-1,2-oxazol-3-yl}phenyl)imino]-1lambda6-thiomorpholin-1-one], the IC50 in assay [1] amounted to 80 nM; against c-Kit(V654A), 1.7 nM.
For `COCCOc1cc2[nH]nc(-c3cc(-c4ccc(-n5cncn5)cc4)no3)c2cc1F` [A21, 5-fluoro-6-(2-methoxyethoxy)-3-{3-[4-(1H-1,2,4-triazol-1-yl)phenyl]-1,2-oxazol-5-yl}-1H-indazole] the same measures were 570 nM and 12 nM.
Taken in the same sequence, the figures for `COCCOc1cc2[nH]nc(-c3cc(-c4ccc(C(=O)N5CC[C@@H]5C(C)(C)O)cc4)no3)c2cc1F` [A58, 2-[(2R)-1-(4-{5-[5-fluoro-6-(2-methoxyethoxy)-1H-indazol-3-yl]-1,2-oxazol-3-yl}benzoyl)azetidin-2-yl]propan-2-ol] were 52 nM and 0.78 nM.
For `CCOc1ccc(-c2cc(-c3n[nH]c4cc(OCCOC)c(F)cc34)on2)cn1` [A38, 3-[3-(6-ethoxypyridin-3-yl)-1,2-oxazol-5-yl]-5-fluoro-6-(2-methoxyethoxy)-1H-indazole] the same measures were 4400 nM and 35 nM.
As to `COCCOc1cc2[nH]nc(-c3cc(-c4ccc(C(=O)N5CCS(=O)(=O)CC5C)cc4)no3)c2cc1F` (stereo not drawn) [A121, 4-(4-{5-[5-fluoro-6-(2-methoxyethoxy)-1H-indazol-3-yl]-1,2-oxazol-3-yl}benzoyl)-3-methyl-1lambda6-thiomorpholine-1,1-dione], the values for the IC50 (in assay [1]; against c-Kit(V654A)) were 42 nM and 0.6 nM, respectively.
Taken in the same sequence, the figures for `COCCOc1cc2[nH]nc(-c3cc(-c4ccc(N5CCOCC5)nc4)no3)c2cc1F` [A141, 5-fluoro-6-(2-methoxyethoxy)-3-{3-[6-(morpholin-4-yl)pyridin-3-yl]-1,2-oxazol-5-yl}-1H-indazole] were 220 nM and 7.7 nM.
As to `COCCOc1cc2[nH]nc(-c3cc(-c4ccc(C(=O)N5CC(C#N)C5)cc4)no3)c2cc1F` [A28, 1-(4-{5-[5-fluoro-6-(2-methoxyethoxy)-1H-indazol-3-yl]-1,2-oxazol-3-yl}benzoyl)azetidine-3-carbonitrile], the IC50 turned out to be 39 nM in assay [1] and 2 nM on c-Kit(V654A).
For `COCCOc1cc2[nH]nc(-c3cc(-c4ccc(N5CC[C@H]6[C@@H]5CCN6C)cc4)no3)c2cc1F` (relative stereo) [A125, 3-(3-{4-[(cis)-4-methyl-octahydropyrrolo[3,2-b]pyrrol-1-yl]phenyl}-1,2-oxazol-5-yl)-5-fluoro-6-(2-methoxyethoxy)-1H-indazole] the same measures were 230 nM and 1.9 nM.
Taken in the same sequence, the figures for `COCCOc1cc2[nH]nc(-c3cc(-c4ccc(C(=O)N5CCC(N6CCOCC6)C5)cc4)no3)c2cc1F` (stereo not drawn) [A153, 5-fluoro-6-(2-methoxyethoxy)-3-(3-{f4-[3-(morpholin-4-yl)pyrrolidine-1l-carbonyl]phenyl}-1,2-oxazol-5-yl)-1H-indazole] were 46 nM and 0.83 nM.
`COc1cc2[nH]nc(-c3cc(-c4ccc(C(=O)N5CCNCC5)cc4)no3)c2cc1F` [A225, {4-[5-(5-fluoro-6-methoxy-1H-indazol-3-yl)-isoxazol-3-yl]-phenyl}-piperazin-1-yl-methanone]: the values for the IC50 (in assay [1]; against c-Kit(V654A)) were 340 nM and 3.1 nM, respectively.
For `COCCOc1cc2[nH]nc(-c3cc(-c4ccc(N5CCCNCC5)cc4)no3)c2cc1F` [A42, 3-{3-[4-(1,4-diazepan-1-yl)phenyl]-1,2-oxazol-5-yl}-5-fluoro-6-(2-methoxyethoxy)-1H-indazole] the same measures were 170 nM and 0.73 nM.
Regarding `COCCOc1cc2[nH]nc(-c3cc(-c4ccc(C)nc4)no3)c2cc1F` [A22, 5-fluoro-6-(2-methoxyethoxy)-3-[3-(6-methylpyridin-3-yl)-1,2-oxazol-5-yl]-1H-indazole], the results for the IC50 (in assay [1]; at c-Kit(V654A)) were 2200 nM and 32 nM, respectively.
Consider `[2H]C1([2H])NC([2H])([2H])C([2H])([2H])N(C(=O)c2ccc(-c3cc(-c4n[nH]c5cc(OCCOC)c(F)cc45)on3)cc2)C1([2H])[2H]` [A232, 5-fluoro-6-(2-methoxyethoxy)-3-(3-{4-[(2,2,3,3,5,5,6,6-^2H8)piperazine-1-carbonyl]phenyl}-1,2-oxazol-5-yl)-1H-indazole hydrochloride], for which the IC50 in assay [1] turned out to be 100 nM; on c-Kit(V654A), 0.09 nM.
Taken in the same sequence, the figures for `COCCOc1cc2[nH]nc(-c3cc(-c4ccc(C(=O)N5CCOC[C@@H]5CO)cc4)no3)c2cc1F` [A106, [(3S)-4-(4-{5-[5-fluoro-6-(2-methoxyethoxy)-1H-indazol-3-yl]-1,2-oxazol-3-yl}benzoyl)morpholin-3-yl]methanol] were 77 nM and 0.7 nM.
Take `COCCOc1cc2[nH]nc(-c3cc(-c4ccc(OCCN5CCNCC5)cc4)no3)c2cc1F` [A134, 5-fluoro-6-(2-methoxyethoxy)-3-(3-{4-[2-(piperazin-1-yl)ethoxy]phenyl}-1,2-oxazol-5-yl)-1H-indazole]: the IC50 in assay [1] amounted to 150 nM; against c-Kit(V654A), 1.5 nM.
Taken in the same sequence, the figures for `COCCOc1cc2[nH]nc(-c3cc(-c4ccc(C(=O)N5CC[C@H]5C(C)(C)O)cc4)no3)c2cc1F` [A59, 2-[(2S)-1-(4-{5-[5-fluoro-6-(2-methoxyethoxy)-1H-indazol-3-yl]-1,2-oxazol-3-yl}benzoyl)azetidin-2-yl]propan-2-ol] were 33 nM and 0.51 nM.
Taken in the same sequence, the figures for `COCCOc1cc2[nH]nc(-c3cc(-c4ccc(C(=O)N(C)CCS(C)(=O)=O)cc4)no3)c2cc1F` [A150, 4-{5-[5-fluoro-6-(2-methoxyethoxy)-1H-indazol-3-yl]-1,2-oxazol-3-yl}-N-(2-methanesulfonylethyl)-N-methylbenzamide] were 110 nM and 1.7 nM.
For `COCCOc1cc2[nH]nc(-c3cc(-c4ccc(C(=O)N5C[C@H]6CC(=O)N[C@H]6C5)cc4)no3)c2cc1F` (relative stereo) [A203, (cis)-5-(4-{5-[5-fluoro-6-(2-methoxyethoxy)-1H-indazol-3-yl]-1,2-oxazol-3-yl}benzoyl)-octahydropyrrolo[2,3-c]pyrrol-2-one] the same measures were 560 nM and 1.4 nM.
Regarding `COCCOc1cc2[nH]nc(-c3cc(-c4ccc(N5CCCN(C)CC5)cc4)no3)c2cc1F` [A123, 5-fluoro-6-(2-methoxyethoxy)-3-{3-[4-(4-methyl-1,4-diazepan-1-yl)phenyl]-1,2-oxazol-5-yl}-1H-indazole], the figures for the IC50 (in assay [1]; at c-Kit(V654A)) were 38 nM and 0.39 nM, respectively.
For `COCCOc1cc2[nH]nc(-c3cc(-c4ccc(N5CCCS5(=O)=O)cc4)no3)c2cc1F` [A138, 2-(4-{5-[5-fluoro-6-(2-methoxyethoxy)-1H-indazol-3-yl]-1,2-oxazol-3-yl}phenyl)-1lambda6,2-thiazolidine-1,1-dione] the same measures were 160 nM and 6.4 nM.
Taken in the same sequence, the figures for `COCCOc1cc2[nH]nc(-c3cc(-c4ccc(C(=O)N5CCOC[C@@H]5CO)cc4)no3)c2cc1Cl` [A66, (4-{5-[5-chloro-6-(2-methoxy-ethoxy)-1H-indazol-3-yl]-isoxazol-3-yl}-phenyl)-((S)-3-hydroxymethyl-morpholin-4-yl)-methanone] were 52 nM and 0.65 nM.
